Assay results as given in patent US8703825B2, “Compounds, use thereof as medicaments, and method of preparation thereof” (Universite de Lorraine, priority 2008, dated 2014).
≈ marks a conversion by molar mass, not a printed value. Entries after “also recorded” stand apart in the source; their conditions may differ.

Columns and labels:
[1] = test system: Gram-positive and Gram-negative bacteria (reference strains and clinical isolates); test: Antibacterial activity overall (MIC determination); assay type: cell-based; conditions: summary of MIC results
Source text: According to the joint recommendations: • of the “Comite de l′Antibiogramme de la Société Française de Microbiologie” (Antibiogram Committee of the French Society of Microbiology) (CA-SFM) [CA-SFM. Communique 2007 (Edition of January 2007). http://www.sfm.asso.fr] and, • of the “Clinical and Laboratory Standards Institute” (CLSI, formerly “National Committee for Clinical Laboratory Standards” or NCCLS) [NCCLS. 2003. Methods for dilution antimicrobial susceptibility tests for bacteria that grow aerobically; approved standard M7-A6, 6th ed. National Committee for Clinical Laboratory Standards, Wayne, Pa., USA.], five reference bacterial strains were used for the study: Escherichia coli ATCC 25922, Pseudomonas aeruginosa ATCC 27853, Staphylococcus aureus ATCC 25923 & ATCC 29213 and Enterococcus faecalis ATCC 29212.
The study also included 5 clinical isolates, obtained from rectal samples and/or from haemoculture: • […] E. coli (EcR1), • methicillin-resistant S. aureus (mecA gene) (SaR1), • vancomycin-resistant E. faecium (vanB gene) (EfR1), • E. faecalis resistant to teicoplanin and to vancomycin (vanA gene) (EfR2), and • P. aeruginosa overexpressing an efflux pump (PaRl).
Procedure for determining the Minimum Inhibitory Concentration (MIC)
The minimum inhibitory concentrations (MIC) were determined by the standardized method of microdilution in liquid medium (96-well microplate, U-shaped bottom, Greiner), in Mueller-Hinton broth, with a final inoculum of 10^5-10^6 CFU/mL, depending on the bacterial species, in accordance with the recommendations of the CLSI.
For the determination of MIC, bacterial suspensions are prepared from an isolated colony, taken from a Mueller-Hinton agar, taken up in 5 mL of Mueller-Hinton broth. After 24 h of growth, the bacterial suspensions are diluted in sterile distilled water in order to obtain an inoculum of 10^5-10^6 CFU/mL. The purity of the bacterial suspensions is tested by isolation on agar and Gram staining.
The results are the mean value of 4 independent experiments.

in vitro = assay type: cell-based; conditions: human
Source text: The eukaryotic cells used in our study are HaCaT cells (human keratinocytes), which were kindly supplied by the Pierre Fabre Institute (Toulouse, France); and MRC-5 cells (human embryonic fibroblasts), which were obtained from the company BioMérieux (Lyons, France). These cells are cultivated in DMEM (“Dulbecco's modified Eagle's medium”, Invitrogen 61965) for the HaCaT cells, and MEM (“modified Eagle's medium”, Invitrogen 41090); 10% of fetal calf serum (FCS, Invitrogen, 10270, Batch 40Q5150K) in a humid chamber at 37° C., under 5% CO2. The HaCaT and MRC-5 cells were seeded at 10^4 cells/well in 96-well plates (Sarstedt 831835). After 48 h of growth, the culture medium is withdrawn and replaced with the various “test” solutions (volume=100 μL). After contact time of 24, 48 and/or 168 H,the viability or cytotoxicity tests are carried out.
b) Cytotoxicity Tests (Neutral Red Test)
The cytotoxicity test is based on incorporation of a vital dye, Neutral Red, in the lysosomes of the viable cells, after exposure of the cells to different concentrations of the test molecules. The quantity of dye, after extraction from the lysosomes, is quantified by means of a spectrophotometer and compared with that obtained in the case of “control” cells, not exposed to the test molecules.
The test was carried out as described previously [Borenfreund E, Puerner J A. Toxicity determined in vitro by morphological alterations and neutral red absorption. Toxicol Lett 1985; 24: 119-24, and Grare M, Mourer M, Fontanay S, Regnouf-de-Vains J B, Finance C, Duval R E. In vitro activity of para-guanidinoethylcalix[4]arene against susceptible and antibiotic-resistant Gram-negative and Gram-positive bacteria. J Antimicrob Chemother. 2007; 60: 575-81].
After contact times of 24, 48 and/or 168 h with the different concentrations of the test molecules, the medium contained in each well is withdrawn and replaced with 200 μL of medium without phenol red (Invitrogen, 51200) containing 50 μg/mL of Neutral Red for an additional 3 h of incubation. The cells are then rinsed 3 times with PBS solution. After the last washing with PBS, 200 μL of a solution with 1% acetic acid/50% ethanol is added to each well to extract the dye from the lysosomes of the viable cells. The absorbance is measured at 540 nm, with a reference wavelength at 690 nm, by means of an ELISA plate reader (Multiskan E X, Thermo Electron Corporation, France). The results are the mean of the values obtained for 8 wells per concentration and per unit time. Each experiment was carried out 3 times.

[2] = test system: HaCaT and/or MRC5 eukaryotic cells; assay type: cell-based, human
Source text: The eukaryotic cells used in our study are HaCaT cells (human keratinocytes), which were kindly supplied by the Pierre Fabre Institute (Toulouse, France); and MRC-5 cells (human embryonic fibroblasts), which were obtained from the company BioMérieux (Lyons, France). These cells are cultivated in DMEM (“Dulbecco's modified Eagle's medium”, Invitrogen 61965) for the HaCaT cells, and MEM (“modified Eagle's medium”, Invitrogen 41090); 10% of fetal calf serum (FCS, Invitrogen, 10270, Batch 40Q5150K) in a humid chamber at 37° C., under 5% CO2. The HaCaT and MRC-5 cells were seeded at 10^4 cells/well in 96-well plates (Sarstedt 831835). […]
It is based on the reduction of yellow tetrazolium salts to purple crystals of formazan, mainly by mitochondrial dehydrogenases. The quantity of formazan formed is proportional to the number of live cells. […] The absorbance is measured at 540 nm with a reference wavelength at 690 nm, using an ELISA plate reader (Multiskan E X, Thermo Electron Corporation, France). […]
The cytotoxicity test is based on incorporation of a vital dye, Neutral Red, in the lysosomes of the viable cells, after exposure of the cells to different concentrations of the test molecules. The quantity of dye, after extraction from the lysosomes, is quantified by means of a spectrophotometer and compared with that obtained in the case of “control” cells, not exposed to the test molecules. […]

Compound | antibacterial activity (in words) [1] | CC50 at 24 h (in vitro) | CC50 at 48 h (in vitro) | effect on viability and cytotoxicity (in words) [2] | CC50 at 168 h (in vitro)
[H]/N=C(\N/C(=N/[H])NCCCCCCNC(=N)NC(=N)Nc1ccc(Cl)cc1)Nc1ccc(Cl)cc1 [CHX, chlorhexidine] | broad-spectrum antibacterial activity | 8 to 16 µg/mL (≈ 15.8 to 31.7 µM) |  |  | 
N=C(N)c1ccc(OCCCCCCOc2ccc(C(=N)N)cc2)cc1 [HX, hexamidine] |  | 8 to 16 µg/mL (≈ 22.6 to 45.1 µM) | 8 to 16 µg/mL (≈ 22.6 to 45.1 µM) |  | 
N=C(N)NCCc1ccc(OCCCCCCOc2ccc(CCNC(=N)N)cc2)cc1 [compound 6, 1,6-bis(4-(2-guanidinoethyl)phenoxy)hexane] | maintains comparable activity on the clinical isolates; also recorded: better overall than hexamidine and is comparable to that of chlorhexidine | 4 to 8 µg/mL (≈ 9.08 to 18.2 µM) | 2 to 4 µg/mL (≈ 4.54 to 9.08 µM) | slightly less pronounced effect on viability and cytotoxicity | 1 to 2 µg/mL (≈ 2.27 to 4.54 µM)
